# Like-named read-outs stand apart in the source and are kept apart here. Where a SMILES comes first, the peptide text is derived from it.
# How the values were obtained:
# [1] = system: Escherichia coli (NCTC 10418); type: cell-based; settings: for MBC: NCTC 10418, 18 h; for MIC: NCTC 10418, 24 h
# Description: (§1) The minimal inhibitory concentrations (MICs) and minimum bactericidal concentrations (MBCs) were evaluated to determine the antimicrobial activity of synthetic peptides. The microorganisms employed in the study are two kinds of Gram-negative bacteria, Escherichia coli (NCTC 10418) and Pseudomonas aeruginosa (ATCC 27853), three kinds of Gram-positive bacteria, Staphylococcus aureus (NCTC 10788), Methicillin-resistant Staphylococcus aureus (MRSA, ATCC 12493) and Enterococcus faecalis (NCTC 12697) and a yeast, Candida albicans (NCPF 1467), as indicated previously. […] The sterilised broth medium was used as the positive control and the microorganism cultured in the medium only was treated as the negative control. […] The MBC results were defined as the lowest bactericidal concentrations of peptide. The antimicrobial activity of peptides was tested by monitoring the absorbance at 550 nm using an ELISA plate reader (Biolise BioTek EL808, Winooski, VT, USA).
# [2] = system: Pseudomonas aeruginosa (ATCC 27853); type: cell-based; settings: for MBC: ATCC 27853, 18 h; for MIC: ATCC 27853, 24 h
# Description: as §1
# [3] = system: Candida albicans (NCPF 1467); type: cell-based; settings: for MBC: NCPF 1467, 18 h; for MIC: NCPF 1467, 24 h
# Description: as §1
# [4] = system: Methicillin-resistant Staphylococcus aureus (MRSA, ATCC 12493); type: cell-based; settings: for MBC: ATCC 12493, 18 h; for MIC: ATCC 12493, 24 h
# Description: as §1
# [5] = system: Enterococcus faecalis (NCTC 12697); type: cell-based; settings: for MBC: NCTC 12697, 18 h; for MIC: NCTC 12697, 24 h
# Description: as §1
# [6] = system: Staphylococcus aureus (NCTC 10788); type: cell-based; settings: for MBC: NCTC 10788, 18 h; for MIC: NCTC 10788, 24 h
# Description: as §1
# E. coli = type: cell-based, Escherichia coli; settings: 24 h
# Description: (§2) The minimal inhibitory concentrations (MICs) and minimum bactericidal concentrations (MBCs) were evaluated to determine the antimicrobial activity of synthetic peptides. The microorganisms employed in the study are two kinds of Gram-negative bacteria, Escherichia coli (NCTC 10418) and Pseudomonas aeruginosa (ATCC 27853), three kinds of Gram-positive bacteria, Staphylococcus aureus (NCTC 10788), Methicillin-resistant Staphylococcus aureus (MRSA, ATCC 12493) and Enterococcus faecalis (NCTC 12697) and a yeast, Candida albicans (NCPF 1467), as indicated previously. For antimicrobial assays, 5 × 10^5 CFU/mL of bacterial suspensions were incubated with the concentrations of the peptides (ranging from 1 µM to 512 µM) for 24 h at 37 °C. The sterilised broth medium was used as the positive control and the microorganism cultured in the medium only was treated as the negative control. […] The MBC results were defined as the lowest bactericidal concentrations of peptide. The antimicrobial activity of peptides was tested by monitoring the absorbance at 550 nm using an ELISA plate reader (Biolise BioTek EL808, Winooski, VT, USA).
# (§3) The activity of peptides in the different environmental conditions including different concentrations of NaCl (50, 100 and 150 mM) and MgCl2 (0.5, 1 and 2 mM), pH (6, 7 and 8), temperature (50 °C, 75 °C and 100 °C) and 10% fetal bovine serum (FBS) solution, was evaluated using the broth microdilution assay as described in the antimicrobial activity assay. For the stability test of peptides in the presence of salt, pH and serum, these conditions were adjusted in the fresh medium that was further used to dilute the bacteria suspension. The peptides were also dissolved in such broth and mixed with the bacteria suspension in the 96 well plate. For the thermal stability test, the peptides were dissolved in the water and incubated at different temperature for 15 min before dosing in the plate. The sterilised broth with corresponding conditions was used as the positive controls, and the bacteria suspension without any treatment was used as the negative controls.
# C. albicans = type: cell-based, Candida albicans; settings: 24 h
# Description: as §2, §3
# MRSA [7] = type: cell-based, Staphylococcus aureus; settings: 24 h
# Description: as §2, §3
# S. aureus = type: cell-based, Staphylococcus aureus; settings: 24 h
# Description: as §2, §3
# P. aeruginosa = type: cell-based, Pseudomonas aeruginosa; settings: 24 h
# Description: as §2, §3
# horse red blood cells = experiment: Haemolysis assay and therapeutic index; settings: 2% horse red blood cells in PBS, 2 h, 37 °C, absorbance 570 nm; best-fitted curve
# MRSA [8] = experiment: Skin disinfection test, pig skin model; design: species or system Staphylococcus aureus; settings: 10 µL peptide at 1 × MIC on MRSA-inoculated pig skin wound, 37 °C, 4 days; SEM
# Description: Specifically, pig skin was sterilized before using. The pig skins were cut into small pieces, and then, a rectangular groove was cut using a skin graft. 100 µL of logarithmic MRSA solution was inoculated on the wound, followed by incubating at 37 °C for 30 min. […] The pictures of wounds were captured by the digital camera after washing thrice with PBS, fixed with 2.5% (w/v) glutaraldehyde and dehydrated with a graded ethanol series. Finally, the MRSA cells which had attached to the wounded pig skin were visualized by SEM (Hitachi S-4800, Tokyo, Japan).
# MRSA [9] = experiment: Time-killing assay; type: cell-based, Staphylococcus aureus; settings: peptide at 4 × MIC; colony counts on MHA; three independent experiments
# Description: The time-killing assays were employed to determine the killing kinetics of the peptides on the selected bacteria strains. The experiment was performed as described previously. In brief, the bacteria culture was prepared the same way as the antimicrobial activity assay. A bacteria suspension (OD600 = 0.1) was mixed with the peptides at the concentration of their corresponding MICs and 4 × MICs. At different time intervals, 10 µL of aliquots of each sample was transferred into a clean tube and a series of 10-fold dilution was prepared in PBS. A volume of 100 µL of diluted bacteria suspension was spread on an MHA plate, and the number of the bacterial colonies that were formed after an overnight-incubation at 37 °C. The bacteria cultured without any treatment was employed as the negative (growth) control. Three experiments were run in triplicate.
Compound,MBC [1],MIC [1],MBC [2],MIC [2],MBC [3],MIC [3],MBC [4],MIC [4],MBC [5],MIC [5],MBC [6],MIC [6],MIC (E. coli; pH 6),MIC (E. coli; pH 7),MIC (E. coli; pH 8),MIC (C. albicans; pH 6),MIC (C. albicans; pH 7),MIC (C. albicans; pH 8),MIC (MRSA [7]; pH 6),MIC (MRSA [7]; pH 7),also measured
CC(C)C[C@H](NC(=O)[C@H](C)NC(=O)[C@H](Cc1c[nH]c2ccccc12)NC(=O)[C@H](CCCCN)NC(=O)[C@H](CC(C)C)NC(=O)[C@@H](N)Cc1ccccc1)C(=O)N[C@@H](CCCCN)C(=O)N[C@H](C(=O)N[C@@H](C)C(=O)N[C@@H](C)C(=O)N[C@@H](CCCCN)C(N)=O)C(C)C [OSd] (H-FLKWALKVAAK-NH2),32 µM,32 µM,64 µM,64 µM,32 µM,16 µM,32 µM,32 µM,64 µM,32 µM,32 µM,16 µM,64 µM,64 µM,64 µM,64 µM,32 µM,32 µM,256 µM,128 µM,MIC (MRSA [7]; pH 8): 64 µM; MIC (S. aureus; pH 6): 64 µM; MIC (S. aureus; pH 7): 32 µM; MIC (S. aureus; pH 8): 32 µM; MIC (P. aeruginosa; pH 6): 128 µM; MIC (P. aeruginosa; pH 7): 128 µM; MIC (P. aeruginosa; pH 8): 64 µM
CC(C)C[C@H](NC(=O)[C@H](C)NC(=O)[C@H](Cc1c[nH]c2ccccc12)NC(=O)[C@H](CCCCN)NC(=O)[C@H](CC(C)C)NC(=O)[C@@H](N)Cc1ccccc1)C(=O)N[C@@H](CCCCN)C(=O)N[C@@H](Cc1c[nH]c2ccccc12)C(=O)N[C@@H](C)C(=O)N[C@@H](C)C(=O)N[C@@H](CCCCN)C(N)=O [OSe] (H-FLKWALKWAAK-NH2),16 µM,16 µM,16 µM,16 µM,4 µM,4 µM,8 µM,8 µM,16 µM,16 µM,4 µM,4 µM,32 µM,16 µM,16 µM,16 µM,8 µM,4 µM,64 µM,16 µM,MIC (MRSA [7]; pH 8): 8 µM; MIC (S. aureus; pH 6): 16 µM; MIC (S. aureus; pH 7): 8 µM; MIC (S. aureus; pH 8): 4 µM; HC50 (concentration causing 50% haemolysis of the red blood cells) (horse red blood cells): 64.03 µM; MIC (P. aeruginosa; pH 6): 32 µM; MIC (P. aeruginosa; pH 7): 64 µM; MIC (P. aeruginosa; pH 8): 32 µM
CC(C)C[C@H](NC(=O)[C@H](C)NC(=O)[C@H](Cc1c[nH]c2ccccc12)NC(=O)[C@H](CCCCN)NC(=O)[C@@H]1CCCN1C(=O)[C@H](CC(C)C)NC(=O)[C@@H](N)Cc1ccccc1)C(=O)N[C@@H](CCCCN)C(=O)N[C@@H](Cc1c[nH]c2ccccc12)C(=O)N[C@@H](C)C(=O)N[C@@H](C)C(=O)N[C@@H](CCCCN)C(N)=O [OSf] (H-FLPKWALKWAAK-NH2; N-terminus assumed),16 µM,8 µM,64 µM,64 µM,16 µM,8 µM,64 µM,16 µM,64 µM,32 µM,16 µM,8 µM,128 µM,8 µM,32 µM,128 µM,8 µM,16 µM,512 µM,16 µM,MRSA on infected pig skin wound after treatment (MRSA [8]): almost eradicated; MIC (MRSA [7]; pH 8): 32 µM; MIC (S. aureus; pH 6): 128 µM; MIC (S. aureus; pH 7): 8 µM; MIC (S. aureus; pH 8): 16 µM; time to complete killing of MRSA (MRSA [9]): ≤ 45 min; HC50 (concentration causing 50% haemolysis of the red blood cells) (horse red blood cells): 328.3 µM; MIC (P. aeruginosa; pH 6): 128 µM; MIC (P. aeruginosa; pH 7): 256 µM; MIC (P. aeruginosa; pH 8): 64 µM
